In US20250011289A1, “1H-BENZO[B]AZEPIN-2(3H)-ONE COMPOUNDS, COMPOSITIONS AND METHODS OF TREATING CANCER” (Chengdu Anticancer Bioscience, Ltd., priority 2021, published 2025):
Where two headings read alike, the source gives them in different places.

Experiments:
[1] = tested on: RPE-Neo or RPE-MYC cells; assay: MTT assay of cellular proliferation; assay type: cell-based; settings: compounds at 20 nM to 20 μM; read-out: Min. Effective conc. for Proliferative arrest (>50%)
Protocol: Human cancer cell lines were obtained from ATCC and cultured in DMEM (Gibco, Cleveland. TN, USA) supplemented with 5% fetal bovine serum (Gibco), penicillin (100 U/mL)-streptomycin (100 μg/mL) (Gibco, Cat. No. 15140-122), 2 mM L-glutamine (Gibco, 200 mM solution, Cat. No. 25030081), and 1 mM sodium pyruvate (Gibco, 100 mM solution, Cat. No. 11360070) at 37° C. in a humidified incubator that was maintained at 5% CO2.
(§1) Screening was conducted as described before (Li et al. 2019). Briefly, RPE-Neo or RPE-MYC or RPE-MYC expressing an EGFP-Histone 2B fusion protein were passaged as batches of 96-well plates, 18-24 hours before exposure to the chemical compounds of the present disclosure at concentrations from 20 nM to 20 μM. At 24, 48 or 72 hours after initiation of treatment, cells were analyzed for either an arrest in mitosis or a change in DNA content by GE 1N-Cell Analyzer 2000. MTT assays of cellular proliferation were performed as previously described (Li et al. 2019).
(§2) As set forth in table 2 below, an values of greater than or equal to 1 nM and less than or equal to 1.0 μM is marked “A”; a value greater than 1.00 μM and less than or equal to 10.0 μM is marked “B”; a value greater than 10.0 μM and less than or equal to 30.0 μM is marked “C”; and a value greater than 30.0 μM and less than 1000 μM is marked “D.”

[2] = tested on: RPE-Neo or RPE-MYC or RPE-MYC expressing an EGFP-Histone 2B fusion protein; assay: Phenotypic screening assay (arrest in mitosis or change in DNA content, IN-Cell Analyzer); assay type: cell-based; settings: compounds at 20 nM to 20 μM, analysed 24, 48 or 72 hours after initiation of treatment
Protocol: as §1, §2

[3] = read-out: Min. Effective conc. for Along with Cell Death
[4] = read-out: Min. Effective conc. for Mitotic Arrest (>5%)
[5] = read-out: Min. Effective conc. for Polyploidy (≥5%)

[2H]C(c1ccc(C)c(F)c1)N1C(=O)CC(c2nnc(C3CC3)o2)=C(Br)c2ccccc21 (stereo not shown) [Compound 20-26, 5-bromo-4-(5-cyclopropyl-1,3,4-oxadiazol-2-yl)-1-((3-fluoro-4-methylphenyl)methyl-d)-1,3-dihydro-2H-benzo[b]azepin-2-one]
minimal effective concentration [1]: 0.001 to 1 µM
minimal effective concentration [2, 3]: 0.001 to 1 µM
minimal effective concentration [2, 4]: 0.001 to 1 µM
minimal effective concentration [2, 5]: 0.001 to 1 µM

Cc1ccc(CN2C(=O)CC(COC3CCOCC3)=C(Br)c3ccccc32)cc1F [Compound 44-2, 5-bromo-1-(3-fluoro-4-methylbenzyl)-4-(((tetrahydro-2H-pyran-4-yl)oxy)methyl)-1,3-dihydro-2H-benzo[b]azepin-2-one]
minimal effective concentration [1]: 1 to 10 µM
minimal effective concentration [2, 3]: 1 to 10 µM
minimal effective concentration [2, 4]: 1 to 10 µM
minimal effective concentration [2, 5]: 1 to 10 µM

Cc1ccc(CN2C(=O)CC(c3cnco3)=C(Br)c3ccccc32)cc1F [Compound 8-2, 5-bromo-1-(3-fluoro-4-methylbenzyl)-4-(oxazol-5-yl)-1,3-dihydro-2H-benzo[b]azepin-2-one]
minimal effective concentration [1]: 0.001 to 1 µM
minimal effective concentration [2, 3]: 0.001 to 1 µM
minimal effective concentration [2, 4]: 0.001 to 1 µM
minimal effective concentration [2, 5]: 0.001 to 1 µM

Cc1ccc(CN2C(=O)CC(c3nnc(C4CC4)o3)=C(Br)c3ccc(Cl)cc32)cc1F [Compound 20-9, 5-bromo-8-chloro-4-(5-cyclopropyl-1,3,4-oxadiazol-2-yl)-1-(3-fluoro-4-methylbenzyl)-1,3-dihydro-2H-benzo[b]azepin-2-one]
minimal effective concentration [1]: 0.001 to 1 µM
minimal effective concentration [2, 3]: 0.001 to 1 µM
minimal effective concentration [2, 4]: 0.001 to 1 µM
minimal effective concentration [2, 5]: 0.001 to 1 µM

Cc1ccc(CN2C(=O)CC(c3cnco3)=C(Br)c3ccc(Br)cc32)cc1F [Compound 8-3, 5,8-dibromo-1-(3-fluoro-4-methylbenzyl)-4-(oxazol-5-yl)-1,3-dihydro-2H-benzo[b]azepin-2-one]
minimal effective concentration [1]: 0.001 to 1 µM
minimal effective concentration [2, 3]: 0.001 to 1 µM
minimal effective concentration [2, 4]: 0.001 to 1 µM
minimal effective concentration [2, 5]: 0.001 to 1 µM

Cc1ccc(CN2C(=O)CC(c3nnc(C4CC4)o3)=C(Br)c3cccc(F)c32)cc1F [Compound 20-15, 5-bromo-4-(5-cyclopropyl-1,3,4-oxadiazol-2-yl)-9-fluoro-1-(3-fluoro-4-methylbenzyl)-1,3-dihydro-2H-benzo[b]azepin-2-one]
minimal effective concentration [1]: 0.001 to 1 µM
minimal effective concentration [2, 3]: 0.001 to 1 µM
minimal effective concentration [2, 4]: 0.001 to 1 µM
minimal effective concentration [2, 5]: 0.001 to 1 µM

Cc1ccc(CN2C(=O)CC(c3nnc(C4CC4)o3)=C(Br)c3cccc(C)c32)cc1F [Compound 20-18, 5-bromo-4-(5-cyclopropyl-1,3,4-oxadiazol-2-yl)-1-(3-fluoro-4-methylbenzyl)-9-methyl-1,3-dihydro-2H-benzo[b]azepin-2-one]
minimal effective concentration [1]: 0.001 to 1 µM
minimal effective concentration [2, 3]: 0.001 to 1 µM
minimal effective concentration [2, 4]: 0.001 to 1 µM
minimal effective concentration [2, 5]: 0.001 to 1 µM

Cc1cnc(C2=C(Br)c3ccccc3N(Cc3ccc(C)c(F)c3)C(=O)C2)o1 [Compound 23-1, 5-bromo-1-(3-fluoro-4-methylbenzyl)-4-(5-methyloxazol-2-yl)-1,3-dihydro-2H-benzo[b]azepin-2-one]
minimal effective concentration [1]: 0.001 to 1 µM
minimal effective concentration [2, 3]: 0.001 to 1 µM
minimal effective concentration [2, 4]: 0.001 to 1 µM
minimal effective concentration [2, 5]: 0.001 to 1 µM

COC1=C(CO)CC(=O)N(Cc2ccc(C)c(F)c2)c2ccccc21 [Compound 27-1, 1-(3-fluoro-4-methylbenzyl)-4-(hydroxymethyl)-5-methoxy-1,3-dihydro-2H-benzo[b]azepin-2-one]
minimal effective concentration [1]: 30 to 1000 µM
minimal effective concentration [2, 3]: 30 to 1000 µM
minimal effective concentration [2, 4]: 30 to 1000 µM
minimal effective concentration [2, 5]: 30 to 1000 µM

COc1ccc(S(=O)(=O)N2CCC(c3nnc(C4CC4)o3)=C(Br)c3ccccc32)cc1F [Compound 34-3, 2-(5-bromo-1-((3-fluoro-4-methoxyphenyl)sulfonyl)-2,3-dihydro-1H-benzo[b]azepin-4-yl)-5-cyclopropyl-1,3,4-oxadiazole]
minimal effective concentration [1]: 1 to 10 µM
minimal effective concentration [2, 3]: 1 to 10 µM
minimal effective concentration [2, 4]: 1 to 10 µM
minimal effective concentration [2, 5]: 1 to 10 µM
